Results reported in PMC10174618, “Monoterpenoid aryl hydrocarbon receptor allosteric antagonists protect against ultraviolet skin damage in female mice” (Nature Communications, 2023).

How the values were obtained:
Assay in all cases: biochemical
Set-up in all cases: KINOMEscan scanMAX active site-directed competition binding assay, percent of control, 468 kinases
Settings in all cases: competition binding, percent of control
[1] = molecular target: T1, ABL1(F317I)-nonphosphorylated (Homo sapiens, UniProt P00519, F317I)
T1 construct: nonphosphorylated
How it was run: (§1)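 KINOMEscan active site-directed competition binding assay against 468 human kinases with 100 μM S-carvone. Binding expressed as % of control, with 35% of control as the inhibition threshold.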

PRKCI = PRKCI (Homo sapiens, UniProt P41743)
How it was run: as §1

ACVR1 = ACVR1 (Homo sapiens, UniProt Q04771)
How it was run: as §1

PIK3CD = PIK3CD (Homo sapiens, UniProt O00329)
How it was run: as §1

PKN2 = PKN2 (Homo sapiens, UniProt Q16513)
How it was run: as §1

JNK3 = molecular target: T2, JNK3 (Homo sapiens, UniProt P53779)
T2 construct: gene MAPK10
How it was run: as §1

PHKG2 = PHKG2 (Homo sapiens, UniProt P15735)
How it was run: as §1

MERTK = MERTK (Homo sapiens, UniProt Q12866)
How it was run: as §1

ASK1 = molecular target: T3, ASK1 (Homo sapiens, UniProt Q99683)
T3 construct: gene MAP3K5
How it was run: as §1

HIPK3 = HIPK3 (Homo sapiens, UniProt Q9H422)
How it was run: as §1

ZAP70 = ZAP70 (Homo sapiens, UniProt P43403)
How it was run: as §1

EPHA6 = EPHA6 (Homo sapiens, UniProt Q9UF33)
How it was run: as §1

MEK4 = molecular target: T4, MEK4 (Homo sapiens, UniProt P45985)
T4 construct: gene MAP2K4
How it was run: as §1

TAOK1 = TAOK1 (Homo sapiens, UniProt Q7L7X3)
How it was run: as §1

NIK = molecular target: T5, NIK (Homo sapiens, UniProt Q99558)
T5 construct: gene MAP3K14
How it was run: as §1

STK16 = STK16 (Homo sapiens, UniProt O75716)
How it was run: as §1

TIE1 = TIE1 (Homo sapiens, UniProt P35590)
How it was run: as §1

AURKA = AURKA (Homo sapiens, UniProt O14965)
How it was run: as §1

DYRK1B = DYRK1B (Homo sapiens, UniProt Q9Y463)
How it was run: as §1

EGFR(L861Q) = EGFR(L861Q) (Homo sapiens, UniProt P00533, L861Q)
How it was run: as §1

HUNK = HUNK (Homo sapiens, UniProt P57058)
How it was run: as §1

RIPK4 = RIPK4 (Homo sapiens, UniProt P57078)
How it was run: as §1

T5 sequence (Q99558 whole entry): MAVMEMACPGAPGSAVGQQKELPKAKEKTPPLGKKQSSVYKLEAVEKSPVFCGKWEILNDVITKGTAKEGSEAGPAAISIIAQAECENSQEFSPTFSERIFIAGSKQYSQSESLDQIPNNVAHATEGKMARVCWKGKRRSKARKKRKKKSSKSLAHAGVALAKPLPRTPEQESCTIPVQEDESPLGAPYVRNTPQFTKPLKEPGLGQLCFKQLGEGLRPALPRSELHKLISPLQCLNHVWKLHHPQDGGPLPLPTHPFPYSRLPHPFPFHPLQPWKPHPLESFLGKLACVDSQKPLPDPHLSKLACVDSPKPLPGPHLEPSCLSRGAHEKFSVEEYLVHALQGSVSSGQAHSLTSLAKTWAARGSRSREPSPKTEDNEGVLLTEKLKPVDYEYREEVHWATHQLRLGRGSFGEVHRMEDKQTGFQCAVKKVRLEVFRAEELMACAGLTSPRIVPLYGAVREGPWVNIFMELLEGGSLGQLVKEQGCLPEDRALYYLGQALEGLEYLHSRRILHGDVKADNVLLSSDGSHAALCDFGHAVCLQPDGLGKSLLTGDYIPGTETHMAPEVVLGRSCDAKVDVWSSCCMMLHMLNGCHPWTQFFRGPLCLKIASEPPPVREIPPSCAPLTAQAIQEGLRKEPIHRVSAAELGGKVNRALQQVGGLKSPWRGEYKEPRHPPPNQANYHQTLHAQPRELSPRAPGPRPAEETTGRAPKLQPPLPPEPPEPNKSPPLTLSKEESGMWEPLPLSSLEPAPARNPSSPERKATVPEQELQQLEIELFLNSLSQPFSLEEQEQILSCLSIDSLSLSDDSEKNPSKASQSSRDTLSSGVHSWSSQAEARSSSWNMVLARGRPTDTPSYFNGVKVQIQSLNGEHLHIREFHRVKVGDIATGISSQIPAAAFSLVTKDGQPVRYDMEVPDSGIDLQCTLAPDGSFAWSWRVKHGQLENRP
Chain of AURKA (O14965 whole entry): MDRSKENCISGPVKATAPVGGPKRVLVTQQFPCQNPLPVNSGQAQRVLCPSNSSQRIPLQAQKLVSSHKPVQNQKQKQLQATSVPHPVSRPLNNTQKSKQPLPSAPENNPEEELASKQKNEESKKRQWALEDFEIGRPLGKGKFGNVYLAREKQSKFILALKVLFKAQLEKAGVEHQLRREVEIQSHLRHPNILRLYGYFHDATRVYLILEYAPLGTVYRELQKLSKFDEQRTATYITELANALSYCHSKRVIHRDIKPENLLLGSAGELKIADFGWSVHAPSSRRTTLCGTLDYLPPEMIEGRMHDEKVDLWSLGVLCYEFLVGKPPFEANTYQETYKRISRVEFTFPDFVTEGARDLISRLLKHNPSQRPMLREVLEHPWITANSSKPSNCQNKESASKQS
Chain of DYRK1B (Q9Y463 whole entry): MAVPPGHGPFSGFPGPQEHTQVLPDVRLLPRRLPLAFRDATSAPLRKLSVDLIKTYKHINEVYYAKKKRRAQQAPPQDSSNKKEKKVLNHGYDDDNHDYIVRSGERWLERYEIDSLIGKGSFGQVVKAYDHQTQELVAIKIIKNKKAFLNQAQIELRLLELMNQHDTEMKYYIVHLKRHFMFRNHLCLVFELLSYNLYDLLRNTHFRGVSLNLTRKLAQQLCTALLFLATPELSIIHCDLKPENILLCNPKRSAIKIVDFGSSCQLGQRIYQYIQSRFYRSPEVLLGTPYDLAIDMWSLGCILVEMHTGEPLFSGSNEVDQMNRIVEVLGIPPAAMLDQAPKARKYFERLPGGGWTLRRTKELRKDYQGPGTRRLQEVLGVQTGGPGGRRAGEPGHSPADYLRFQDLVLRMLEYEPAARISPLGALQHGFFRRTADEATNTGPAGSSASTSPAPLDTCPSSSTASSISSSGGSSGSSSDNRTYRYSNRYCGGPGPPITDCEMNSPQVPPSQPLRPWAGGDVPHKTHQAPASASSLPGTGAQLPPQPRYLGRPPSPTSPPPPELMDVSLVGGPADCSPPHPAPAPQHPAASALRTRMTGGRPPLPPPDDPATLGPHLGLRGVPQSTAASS
Chain of TAOK1 (Q7L7X3 whole entry): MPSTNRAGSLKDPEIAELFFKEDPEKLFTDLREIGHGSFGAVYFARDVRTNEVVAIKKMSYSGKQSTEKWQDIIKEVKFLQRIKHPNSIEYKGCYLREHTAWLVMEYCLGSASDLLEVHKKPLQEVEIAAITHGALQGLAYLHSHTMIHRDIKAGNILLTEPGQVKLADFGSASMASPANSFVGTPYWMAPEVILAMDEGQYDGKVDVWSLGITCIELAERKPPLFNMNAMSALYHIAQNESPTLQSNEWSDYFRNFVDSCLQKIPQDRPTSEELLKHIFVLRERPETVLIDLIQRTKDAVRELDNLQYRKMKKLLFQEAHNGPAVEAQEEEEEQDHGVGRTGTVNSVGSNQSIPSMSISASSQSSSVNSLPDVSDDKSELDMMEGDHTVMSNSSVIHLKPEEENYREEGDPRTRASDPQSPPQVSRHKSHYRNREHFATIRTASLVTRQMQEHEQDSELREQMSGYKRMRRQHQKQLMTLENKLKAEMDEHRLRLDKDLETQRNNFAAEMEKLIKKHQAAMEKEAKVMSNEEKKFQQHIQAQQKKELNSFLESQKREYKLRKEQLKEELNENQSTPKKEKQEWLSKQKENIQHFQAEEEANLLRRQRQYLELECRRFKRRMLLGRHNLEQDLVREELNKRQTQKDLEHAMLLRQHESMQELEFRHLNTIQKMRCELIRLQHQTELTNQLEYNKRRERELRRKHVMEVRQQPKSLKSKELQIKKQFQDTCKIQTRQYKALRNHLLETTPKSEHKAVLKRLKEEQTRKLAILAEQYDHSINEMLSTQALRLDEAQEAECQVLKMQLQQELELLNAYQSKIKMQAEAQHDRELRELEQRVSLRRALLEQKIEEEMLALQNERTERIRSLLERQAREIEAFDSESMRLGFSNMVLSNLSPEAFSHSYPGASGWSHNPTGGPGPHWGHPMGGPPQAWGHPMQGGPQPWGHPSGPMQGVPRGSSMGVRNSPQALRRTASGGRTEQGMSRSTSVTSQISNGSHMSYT
T1 sequence (P00519 whole entry F317I): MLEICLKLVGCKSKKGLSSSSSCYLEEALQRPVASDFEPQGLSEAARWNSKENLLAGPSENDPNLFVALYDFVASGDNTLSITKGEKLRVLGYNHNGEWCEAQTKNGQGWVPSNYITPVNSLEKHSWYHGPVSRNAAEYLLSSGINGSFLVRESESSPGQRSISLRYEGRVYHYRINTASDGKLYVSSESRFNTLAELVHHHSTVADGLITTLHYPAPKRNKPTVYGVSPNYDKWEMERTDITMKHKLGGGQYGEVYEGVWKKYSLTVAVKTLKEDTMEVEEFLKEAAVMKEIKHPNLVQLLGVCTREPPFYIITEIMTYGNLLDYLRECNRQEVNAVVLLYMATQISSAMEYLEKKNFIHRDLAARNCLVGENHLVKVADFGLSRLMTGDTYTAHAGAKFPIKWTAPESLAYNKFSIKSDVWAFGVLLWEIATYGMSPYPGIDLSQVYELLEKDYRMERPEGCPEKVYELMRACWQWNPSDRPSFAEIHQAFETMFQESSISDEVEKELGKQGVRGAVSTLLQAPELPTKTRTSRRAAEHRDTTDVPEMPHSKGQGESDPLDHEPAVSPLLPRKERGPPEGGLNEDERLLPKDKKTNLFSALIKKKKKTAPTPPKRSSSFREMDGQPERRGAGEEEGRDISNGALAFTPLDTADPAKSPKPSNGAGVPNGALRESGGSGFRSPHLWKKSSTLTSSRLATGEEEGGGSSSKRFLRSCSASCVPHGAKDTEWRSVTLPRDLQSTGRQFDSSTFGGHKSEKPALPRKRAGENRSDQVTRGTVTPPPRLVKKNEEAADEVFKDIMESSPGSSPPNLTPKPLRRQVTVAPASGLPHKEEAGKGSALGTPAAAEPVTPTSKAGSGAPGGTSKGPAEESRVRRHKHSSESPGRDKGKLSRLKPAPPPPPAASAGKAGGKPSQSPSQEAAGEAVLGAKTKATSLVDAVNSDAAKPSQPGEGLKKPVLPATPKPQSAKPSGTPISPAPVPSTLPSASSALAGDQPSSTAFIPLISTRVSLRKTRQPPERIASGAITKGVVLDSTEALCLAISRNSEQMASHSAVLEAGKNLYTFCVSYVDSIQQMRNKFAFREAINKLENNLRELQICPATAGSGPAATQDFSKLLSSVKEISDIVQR
Chain of STK16 (O75716 whole entry): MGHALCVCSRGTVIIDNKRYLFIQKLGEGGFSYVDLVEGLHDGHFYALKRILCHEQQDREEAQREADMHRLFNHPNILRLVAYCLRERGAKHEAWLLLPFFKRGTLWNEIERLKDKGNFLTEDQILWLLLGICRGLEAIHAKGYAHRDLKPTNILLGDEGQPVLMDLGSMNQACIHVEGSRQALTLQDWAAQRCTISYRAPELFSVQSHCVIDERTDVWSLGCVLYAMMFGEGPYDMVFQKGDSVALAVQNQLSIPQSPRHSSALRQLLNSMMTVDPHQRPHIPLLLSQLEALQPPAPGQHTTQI
Chain of ACVR1 (Q04771 whole entry): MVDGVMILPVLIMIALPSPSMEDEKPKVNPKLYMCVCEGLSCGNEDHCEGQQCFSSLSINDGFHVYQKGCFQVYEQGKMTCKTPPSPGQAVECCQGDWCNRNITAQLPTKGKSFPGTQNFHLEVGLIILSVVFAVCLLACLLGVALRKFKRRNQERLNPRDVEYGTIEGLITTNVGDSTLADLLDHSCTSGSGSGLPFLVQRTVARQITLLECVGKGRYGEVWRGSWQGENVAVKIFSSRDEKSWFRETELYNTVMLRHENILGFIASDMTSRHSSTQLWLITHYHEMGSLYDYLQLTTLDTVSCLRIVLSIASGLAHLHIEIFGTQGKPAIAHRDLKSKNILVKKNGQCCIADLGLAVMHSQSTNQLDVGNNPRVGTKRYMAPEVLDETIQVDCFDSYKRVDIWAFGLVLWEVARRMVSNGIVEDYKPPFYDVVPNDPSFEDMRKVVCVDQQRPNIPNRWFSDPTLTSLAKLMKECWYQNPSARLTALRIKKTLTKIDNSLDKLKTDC

## C=C(C)[C@H]1CC=C(C)C(=O)C1 [S-carvone]
[1]
  remaining binding at 100 µM: 64%
PRKCI
  remaining binding at 100 µM: 72%
ACVR1
  remaining binding at 100 µM: 89%
PIK3CD
  remaining binding at 100 µM: 87%
PKN2
  remaining binding at 100 µM: 83%
JNK3
  remaining binding at 100 µM: 88%
PHKG2
  remaining binding at 100 µM: 84%
MERTK
  remaining binding at 100 µM: 90%
ASK1
  remaining binding at 100 µM: 81%
HIPK3
  remaining binding at 100 µM: 51%
ZAP70
  remaining binding at 100 µM: 84%
EPHA6
  remaining binding at 100 µM: 64%
MEK4
  remaining binding at 100 µM: 74%
TAOK1
  remaining binding at 100 µM: 82%
NIK
  remaining binding at 100 µM: 84%
STK16
  remaining binding at 100 µM: 90%
TIE1
  remaining binding at 100 µM: 89%
AURKA
  remaining binding at 100 µM: 81%
DYRK1B
  remaining binding at 100 µM: 100%
EGFR(L861Q)
  remaining binding at 100 µM: 65%
HUNK
  remaining binding at 100 µM: 63%
RIPK4
  remaining binding at 100 µM: 64%
